Test results from article PMC9862026, “In Vivo Toxicity, Redox-Modulating Capacity and Intestinal Permeability of Novel Aroylhydrazone Derivatives as Anti-Tuberculosis Agents” (Pharmaceutics, 2022).
Converted amounts (≈) assume the structure as drawn. “Also recorded” adds a separate entry of the source. Where two headings read alike, the source gives them in different places. Marks after values point to notes of the source that are not given here.

Tests used:
male Jcl:ICR mice [1] = test: Sub-acute toxicity, 14 days oral: complete blood count; type: in vivo
Protocol: (§1) The sub-acute toxicity effects were assessed after repeated (14 days) oral administration to male mice. […] The experiments were performed with male Jcl: ICR mice at the same age of 6 weeks and weighing approximately 30–35 g, in which the substances were administered daily for 14 days orally with a gastric tube at approximately the same time of the day. The compounds were solubilized with Tween 80 (0.1%) in distilled water and administered orally in a volume of 0.1 mL per 10.0 g. Animals were observed daily for behavioral changes and signs of toxicity. All results were compared with the positive control isoniazid (INH).
(§2) Serum biochemical parameters were assessed as follows.

female Jcl:ICR mice [2] = conditions: i.p.; for Lethality: female mice
[3] = system: M. tuberculosis H37Rv reference strain; conditions: cited from earlier work
[4] = system: GSH in the liver homogenate; test: Total glutathione in liver homogenate; type: in vivo, mice; conditions: both doses (125 and 250 mg/kg) oral, 14 days
Protocol: as §2
According to Rahman et al. total glutathione (tGSH) concentration was determined. In the reaction between GSH and 5,5′-dithiobis-2-nitrobenzoic acid (DTNB), the rate of formation of colored substance, 5′-thio-2-nitrobenzoic acid (TNB), is proportional to the concentration of tGSH in the sample. The maximal absorption of colored TNB is at 412 nm. The concentration of tGSH was calculated using oxidized glutathione as a reference standard and was expressed as ng/mg protein.

ABTS•+ assay = conditions: 15 min at 37 °C
Protocol: ABTS (2,2′-azino-bis (3-ethylbenzthiazoline-6-sulphonic acid) (7.0 mM) was mixed with potassium persulfate (2.45 mM) to obtain the cationic radical (ABTS•+) The solution was diluted in methanol (2 mL ABTS•+ + 58 mL methanol). The absorption at 743 nm of the resulting working solution was 1.1 ± 0.02 AU. Then, 1.425 mL of ABTS•+ working solution was added to 75 μL of the test drugs, and the absorption at 743 nm was measured after 15 min of incubation at 37 °C against methanol. A blank containing 75 μL of water instead of the test extract also was measured against methanol.
(§3) All data are presented as IC50, which gave 50% inhibition of the activities and compared against the activity of Trolox—a common antioxidant, at the same concentrations.

male Jcl:ICR mice [5] = test: Sub-acute toxicity, 14 days oral: body weight; type: in vivo; conditions: 125 mg/kg oral, end of 14-day period
Protocol: as §1, §2

in vivo = conditions: female, Jcl:ICR, mouse, po
[6] = system: MDA in the liver homogenate; test: Endogenous MDA (spontaneous lipid peroxidation) in liver homogenate; conditions: both doses (125 and 250 mg/kg) oral, 14 days
Protocol: On day 14, the animals were anesthetized with ketamine/ xylazine and decapitated. […] Livers were taken to assess oxidative stress and antioxidant status in the study groups.
For the in vivo experiments (spontaneous lipid peroxidation) the postnuclear homogenates of the liver (mg protein/mL) in 0.15 M KCl—10 mM potassium phosphate buffer, pH 7.2, were heated for 15 min at 100 °C in the presence of 40% TCA + 5N HCl + 2% thiobarbituric acid (2:1:2 v/v) for color developing. After cooling and centrifugation, the absorbance was read at 532 nm against dd H2O as blank. The values were expressed in nmoles malondialdehyde (MDA) per mg protein, with a molar extinction coefficient of 1.56 × 10^−5 M^−1cm^−1.
male Jcl:ICR mice [7] = test: Sub-acute toxicity, 14 days oral: serum biochemical parameters; type: in vivo; conditions: serum
Protocol: as §1, §2

female Jcl:ICR mice [8] = system: female Jcl:ICR mice
HEK-293T = conditions: cited from earlier work
DPPH assay = conditions: 0.1 mM DPPH in methanol, 30 min
Protocol: DPPH (2,2′-diphenyl-1-picrylhydrazyl radical) assay analysis of pure compounds was conducted by the method described by Brand-Williams et al.. First, 500 μL of the test solutions were added to 500 μL of a freshly prepared solution of 0.1 mM DPPH in methanol and incubated in the dark for 30 min. Then the absorbance at 517 nm (A517) was measured against a mixture of DPPH solution and methanol (1:1) as a control.
as §3

[9] = system: Glutathione peroxidase in the liver supernatant; test: Glutathione peroxidase activity in liver supernatant; type: in vivo, mice; conditions: 125 and 250 mg/kg oral, 14 days; vs controls
Protocol: as §2
The Glutathione Peroxidase Cellular Activity Assay Kit (Cat. No. CGP1) and Glutathione Reductase Assay Kit (Cat. No. GRSA) were used to measure the activities of glutathione-related enzymes.

COc1cc(C=NNC(=O)c2snnc2C)ccc1O [3a, N′-[(4-hydroxy-3-methoxyphenyl)methylidene]-4-methyl-1,2,3-thiadiazole-5-carbohydrazide]
HCT (male Jcl:ICR mice [1]; 125 mg/kg oral): 37.2 ± 2.6 ^+ %
Hgb (male Jcl:ICR mice [1]; 125 mg/kg oral): 127 ± 5.4 ^+ g/L
PLT (male Jcl:ICR mice [1]; 125 mg/kg oral): 979 ± 238 10^9/L
RBC (male Jcl:ICR mice [1]; 125 mg/kg oral): 6.84 ± 0.3 ^+ × 10^12/L
WBC (male Jcl:ICR mice [1]; 125 mg/kg oral): 6.3 ± 0.36 ^+ × 10^9/L
HCT (male Jcl:ICR mice [1]; 250 mg/kg oral): 38.2 ± 1.8 ^+ %
Hgb (male Jcl:ICR mice [1]; 250 mg/kg oral): 129 ± 3.8 ^+ g/L
PLT (male Jcl:ICR mice [1]; 250 mg/kg oral): 638 ± 181 10^9/L
RBC (male Jcl:ICR mice [1]; 250 mg/kg oral): 6.97± 0.3 ^+ × 10^12/L
WBC (male Jcl:ICR mice [1]; 250 mg/kg oral): 7.4 ± 0.44 *^+ × 10^9/L
CBC deviations from the reference values (male Jcl:ICR mice [1]; both doses (125 and 250 mg/kg) oral): no statistically significant deviations from the reference values
Lethality (female Jcl:ICR mice [2]; 500 mg/kg b.w.): 0/3
Lethality (female Jcl:ICR mice [2]; 1000 mg/kg b.w.): 0/3
Symptoms before Death Occur (female Jcl:ICR mice [2]; 1500 mg/kg b.w.): Delayed reflexes, somnolence, lethal outcome
Time of Occurrence of Fatal Outcome (female Jcl:ICR mice [2]; 1500 mg/kg b.w.): After 30 h
Symptoms before Death Occur (female Jcl:ICR mice [2]; 2000 mg/kg b.w.): Impaired coordination, rapid breathing, lethal outcome
Time of Occurrence of Fatal Outcome (female Jcl:ICR mice [2]; 2000 mg/kg b.w.): After 24 h
Symptoms before Death Occur (female Jcl:ICR mice [2]; 3000 mg/kg b.w.): Respiratory failure with long pauses, ataxia, piloerection, seizures, lethal outcome
Time of Occurrence of Fatal Outcome (female Jcl:ICR mice [2]; 3000 mg/kg b.w.): After 20 h
MIC ([3]; ref [23]): 0.0730 µM (≈ 0.0213 µg/mL)
level of GSH in liver homogenate [4]: did not significantly increase the level of GSH
ABTS Scavenging, IC50 (ABTS•+ assay): 89.47 * mg/mL
Body weight gain compared to the beginning of the experimental period (male Jcl:ICR mice [5]): 41%
LD50 at 14 days (in vivo): > 2500 mg/kg
MDA content in the liver [6]: restoration of MDA to the control levels
ALAT (male Jcl:ICR mice [7]; 125 mg/kg oral): 62.2 ± 3.3 ^+ U/L
ALB (male Jcl:ICR mice [7]; 125 mg/kg oral): 26.6 ± 2.2 ^+ g/L
ASAT (male Jcl:ICR mice [7]; 125 mg/kg oral): 102 ± 3.6 ^+ U/L
CREAT (male Jcl:ICR mice [7]; 125 mg/kg oral): 95.6 ± 6.6 ^+ µmol/L
D-Bil (male Jcl:ICR mice [7]; 125 mg/kg oral): 3.4 ± 0.46 ^+ µmol/L
GLU (male Jcl:ICR mice [7]; 125 mg/kg oral): 6.3 ± 0.36 mmol/L
T-Bil (male Jcl:ICR mice [7]; 125 mg/kg oral): 7.6 ± 0.44 ^+ µmol/L
TP (male Jcl:ICR mice [7]; 125 mg/kg oral): 54.3 ± 2.6 ^+ g/L
UA (male Jcl:ICR mice [7]; 125 mg/kg oral): 163 ± 23.4 µmol/L
UREA (male Jcl:ICR mice [7]; 125 mg/kg oral): 8.8 ± 0.28 ^+ mmol/L
ALAT (male Jcl:ICR mice [7]; 250 mg/kg oral): 71.4 ± 3.4 *^+ U/L
ALB (male Jcl:ICR mice [7]; 250 mg/kg oral): 27.3 ± 3.1 ^+ g/L
ASAT (male Jcl:ICR mice [7]; 250 mg/kg oral): 113 ± 4.1 U/L
CREAT (male Jcl:ICR mice [7]; 250 mg/kg oral): 86.4 ± 5.6 ^+ µmol/L
D-Bil (male Jcl:ICR mice [7]; 250 mg/kg oral): 4.9 ± 0.34 ^+ µmol/L
GLU (male Jcl:ICR mice [7]; 250 mg/kg oral): 7.1 ± 0.24 mmol/L
T-Bil (male Jcl:ICR mice [7]; 250 mg/kg oral): 8.3 ± 0.28 ^+ µmol/L
TP (male Jcl:ICR mice [7]; 250 mg/kg oral): 58.6 ± 3.6 ^+ g/L
UA (male Jcl:ICR mice [7]; 250 mg/kg oral): 194 ± 17.7 µmol/L
UREA (male Jcl:ICR mice [7]; 250 mg/kg oral): 11.5 ± 0.22 ^+ mmol/L
resorption index (IR) = LD50 i.p./LD50 p.os. × 100 (female Jcl:ICR mice [8]; mice): ≈ 49%; also recorded: ≈ 98%
Mortality (female Jcl:ICR mice [8]; oral administration, highest dose of 3000 mg/kg): No mortality
IC50 (HEK-293T): 257 µM
DPPH Scavenging, IC50 (DPPH assay): 47.5 * mg/mL
activity of GPx in liver [9]: restored the control values of GPx; also recorded: did not statistically significantly alter

COc1ccc2[nH]cc(C=NNC(=O)c3ccco3)c2c1 [3b, N′-[(5-methoxy-1H-indol-3-yl)methylidene]furan-2-carbohydrazide]
HCT (male Jcl:ICR mice [1]; 125 mg/kg oral): 39.6 ± 0.8 ^+ %
Hgb (male Jcl:ICR mice [1]; 125 mg/kg oral): 132.2 ± 4.2 ^+ g/L
PLT (male Jcl:ICR mice [1]; 125 mg/kg oral): 729 ± 203 10^9/L
RBC (male Jcl:ICR mice [1]; 125 mg/kg oral): 7.21 ± 0.16 ^+ × 10^12/L
WBC (male Jcl:ICR mice [1]; 125 mg/kg oral): 8.2 ± 0.28 *^+ × 10^9/L
HCT (male Jcl:ICR mice [1]; 250 mg/kg oral): 40.1 ± 1.2 ^+ %
Hgb (male Jcl:ICR mice [1]; 250 mg/kg oral): 130.2 ± 3.7 ^+ g/L
PLT (male Jcl:ICR mice [1]; 250 mg/kg oral): 864 ± 212 10^9/L
RBC (male Jcl:ICR mice [1]; 250 mg/kg oral): 7.62 ± 0.24 ^+ × 10^12/L
WBC (male Jcl:ICR mice [1]; 250 mg/kg oral): 7.7 ± 0.33 *^+ × 10^9/L
Lethality (female Jcl:ICR mice [2]; 500 mg/kg b.w.): 0/3
Lethality (female Jcl:ICR mice [2]; 1000 mg/kg b.w.): 0/3
Lethality (female Jcl:ICR mice [2]; 1500 mg/kg b.w.): 0/3
Lethality (female Jcl:ICR mice [2]; 2000 mg/kg b.w.): 0/3
Symptoms before Death Occur (female Jcl:ICR mice [2]; 3000 mg/kg b.w.): Impaired coordination, rapid breathing, clonic seizures, death
Time of Occurrence of Fatal Outcome (female Jcl:ICR mice [2]; 3000 mg/kg b.w.): After 3 h
MIC ([3]; ref [22]): 0.4412 µM (≈ 0.125 µg/mL)
level of GSH in liver homogenate [4]: did not significantly increase the level of GSH
ABTS Scavenging, IC50 (ABTS•+ assay): 40.35 * mg/mL
Body weight gain compared to the beginning of the experimental period (male Jcl:ICR mice [5]): 44%
ALAT (male Jcl:ICR mice [7]; 125 mg/kg oral): 77.2 ± 2.8 *^+ U/L
ALB (male Jcl:ICR mice [7]; 125 mg/kg oral): 28.5 ± 3.3 ^+ g/L
ASAT (male Jcl:ICR mice [7]; 125 mg/kg oral): 112.1 ± 4.4 U/L
CREAT (male Jcl:ICR mice [7]; 125 mg/kg oral): 88.2 ± 3.1 ^+ µmol/L
D-Bil (male Jcl:ICR mice [7]; 125 mg/kg oral): 5.1 ± 0.23 ^+ µmol/L
GLU (male Jcl:ICR mice [7]; 125 mg/kg oral): 6.8 ± 0.22 mmol/L
T-Bil (male Jcl:ICR mice [7]; 125 mg/kg oral): 7.8 ± 0.23 ^+ µmol/L
TP (male Jcl:ICR mice [7]; 125 mg/kg oral): 56.6 ± 4.2 ^+ g/L
UA (male Jcl:ICR mice [7]; 125 mg/kg oral): 199 ± 14.6 µmol/L
UREA (male Jcl:ICR mice [7]; 125 mg/kg oral): 8.7 ± 0.26 ^+ mmol/L
ALAT (male Jcl:ICR mice [7]; 250 mg/kg oral): 71.2 ± 1.9 *^+ U/L
ALB (male Jcl:ICR mice [7]; 250 mg/kg oral): 28.2 ± 2.8 g/L
ASAT (male Jcl:ICR mice [7]; 250 mg/kg oral): 110 ± 3.1 U/L
CREAT (male Jcl:ICR mice [7]; 250 mg/kg oral): 92.2 ± 4.4 ^+ µmol/L
D-Bil (male Jcl:ICR mice [7]; 250 mg/kg oral): 3.8 ± 0.42 ^+ µmol/L
GLU (male Jcl:ICR mice [7]; 250 mg/kg oral): 7.0 ± 0.16 mmol/L
T-Bil (male Jcl:ICR mice [7]; 250 mg/kg oral): 8.1 ± 0.32 ^+ µmol/L
TP (male Jcl:ICR mice [7]; 250 mg/kg oral): 52.2 ± 5.1 ^+ g/L
UA (male Jcl:ICR mice [7]; 250 mg/kg oral): 201.3 ± 12 µmol/L
UREA (male Jcl:ICR mice [7]; 250 mg/kg oral): 8.4 ± 0.23 ^+ mmol/L
IC50 (HEK-293T): 280 µM
DPPH Scavenging, IC50 (DPPH assay): 18.69 * mg/mL
activity of GPx in liver [9]: restored the control values of GPx; also recorded: did not statistically significantly alter
